From patent US9617244B2, “Antibacterial quinoline derivatives” (JANSSEN PHARMACEUTICA NV, priority 2012, dated 2017)
In brackets after ≈: the same amount, converted by molar mass.

Columns and labels:
[1] = test system: Streptococcus pneumoniae (ATCC6305); assay: In-vitro anti-bacterial activity, microtitre plate assay, IC90 determination (non-mycobacterial strains); type: cell-based; details: 90% inhibitory concentration for bacterial growth, resazurin fluorescence; for IC90: Streptococcus pneumoniae, ATCC6305, 24 h, read-out: IC90 SPN 6305; for IC90 SPN 6305: 24 hours
How it was run: (§1)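 Growth inhibition measured fluorometrically with resazurin (530/590 nm) after overnight 37 °C incubation under normal atmosphere. Bacteria added at roughly 100 TCID50 per well in Mueller-Hinton broth to five-fold compound dilution series; IC90 reported in μg/ml.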

[2] = test system: Staphylococcus aureus (ATCC29213); assay: as above; type: cell-based; details: 90% inhibitory concentration for bacterial growth, resazurin fluorescence; for IC90 STA B29213: 24 hours; for IC90: Staphylococcus aureus, ATCC29213, 24 h, read-out: IC90 STA B29213
How it was run: as §1

[3] = test system: Mycobacterium smegmatis (ATCC607); assay: In-vitro anti-bacterial activity against strain M. Smegmatis ATCC607; type: cell-based; details: 90% inhibitory concentration for bacterial growth, Alamar Blue fluorescence; for IC90 MSM 607: 48 hours; for IC90: Mycolicibacterium smegmatis, ATCC607, 48 h, read-out: IC90 MSM 607
How it was run: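 IC90 (μg/ml) derived from Alamar Blue fluorescence (530/590 nm) after 48 h growth at 37 °C under 5% CO2. About 250 CFU per well in Mueller-Hinton broth faced five-fold serial compound dilutions in BSA-containing wells.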

Compound | IC90 [1] | IC90 STA B29213 [2] | IC90 MSM 607 [3] | melting point | IC90 [2] | IC90 [3] | IC90 SPN 6305 [1]
COc1nc2ccc(-c3cccnc3)cc2cc1C(c1cccc(Cl)c1)C1(O)CCNC(Cc2ccccc2)C1 (stereo not shown) [Compound 15] | 6.93 µg/mL (≈ 12.6 µM) | 1.74 µg/mL (≈ 3.16 µM) | 1.38 µg/mL (≈ 2.51 µM) | 220 °C | – | – | –
COc1nc2ccc(S(C)(=O)=O)cc2cc1C(c1ccc(Cl)cc1)C1(O)CCNC(Cc2ccccc2)C1 (stereo not shown) [Compound 38] | 6.94 µg/mL (≈ 12.6 µM) | 3.48 µg/mL (≈ 6.31 µM) | 3.48 µg/mL (≈ 6.31 µM) | 130 °C | – | – | –
COc1nc2ccc(Br)cc2cc1C(c1ccc(Cl)cc1)C1(O)CCNC(Cc2ccc(F)c(F)c2)C1 (stereo not shown) [Compound 39] | 5.24 µg/mL (≈ 8.91 µM) | – | – | 106 °C | 1.17 µg/mL (≈ 1.99 µM) | 0.93 µg/mL (≈ 1.58 µM) | –
COc1nc2ccc(Br)cc2cc1C(c1ccc(Cl)cc1)C1(O)CCNCC1Cc1ccccc1 (stereo not shown) [Compound 41] | – | 3.48 µg/mL (≈ 6.31 µM) | 3.48 µg/mL (≈ 6.31 µM) | – | – | – | 6.95 µg/mL (≈ 12.6 µM)
O=c1[nH]c2ccc(Br)cc2cc1C(c1cccc(Cl)c1)C1(O)CCNC(Cc2ccccc2)C1 (stereo not shown) [Compound 86] | 4.56 µg/mL (≈ 8.48 µM) | 1.82 µg/mL (≈ 3.38 µM) | 4.07 µg/mL (≈ 7.57 µM) | – | – | – | –
CSc1nc2ccc(Br)cc2cc1C(c1ccc(Cl)cc1)C1(O)CCNC(Cc2ccccc2)C1 (stereo not shown) [Compound 87] | 7.15 µg/mL (≈ 12.6 µM) | 3.58 µg/mL (≈ 6.3 µM) | 2.85 µg/mL (≈ 5.02 µM) | 227 °C | – | – | –
CSc1nc2ccc(Br)cc2cc1C(c1ccc(Cl)cc1)C1(O)CCNC(Cc2ccccc2)C1 (stereo not shown) [Compound 88] | – | 2.63 µg/mL (≈ 4.63 µM) | 1.66 µg/mL (≈ 2.92 µM) | – | – | – | 8.32 µg/mL (≈ 14.6 µM)
COc1nc2ccc(SC)cc2cc1C(c1ccc(Cl)cc1)C1(O)CCNC(Cc2ccccc2)C1 (stereo not shown) [Compound 90] | 8 µg/mL (≈ 15.4 µM) | – | – | – | 3.18 µg/mL (≈ 6.13 µM) | 3.18 µg/mL (≈ 6.13 µM) | –
COc1nc2ccc(SC)cc2cc1C(c1ccc(Cl)cc1)C1(O)CCNC(Cc2ccccc2)C1 (stereo not shown) [Compound 91] | – | 1.64 µg/mL (≈ 3.16 µM) | 1.64 µg/mL (≈ 3.16 µM) | 214 °C | – | – | 4.63 µg/mL (≈ 8.92 µM)
COc1nc2ccc(SC)cc2cc1C(c1ccc(Cl)cc1)C1(O)CCNC(Cc2ccccc2)C1 (stereo not shown) [Compound 92] | – | 1.64 µg/mL (≈ 3.16 µM) | 1.64 µg/mL (≈ 3.16 µM) | 114 °C | – | – | 6.54 µg/mL (≈ 12.6 µM)
COc1nc2ccc(SC)cc2cc1C(c1ccc(Cl)cc1)C1(O)CCNC(Cc2ccccc2)C1 (stereo not shown) [Compound 93] | – | 3.18 µg/mL (≈ 6.13 µM) | 2.01 µg/mL (≈ 3.87 µM) | – | – | – | 5.66 µg/mL (≈ 10.9 µM)
COc1nc2ccc(Cl)cc2cc1C(c1ccc(Cl)cc1)C1(O)CCNC(Cc2ccccc2)C1 (stereo not shown) [Compound 94] | 4.95 µg/mL (≈ 9.75 µM) | 3.13 µg/mL (≈ 6.17 µM) | 1.76 µg/mL (≈ 3.47 µM) | – | – | – | –
COc1nc2ccc(Br)cc2cc1C(c1ccc(SC)cc1)C1(O)CCNC(Cc2ccccc2)C1 (stereo not shown) [Compound 98] | 6.32 µg/mL (≈ 11.2 µM) | 1.78 µg/mL (≈ 3.16 µM) | 1.12 µg/mL (≈ 1.99 µM) | – | – | – | –
COc1nc2ccc(Br)cc2cc1C(c1ccc(SC)cc1)C1(O)CCNC(Cc2ccccc2)C1 (stereo not shown) [Compound 99] | – | 1.78 µg/mL (≈ 3.16 µM) | 1.42 µg/mL (≈ 2.52 µM) | 214 °C | – | – | 6.32 µg/mL (≈ 11.2 µM)

Continued, values first:

IC90 [1] | IC90 STA B29213 [2] | IC90 MSM 607 [3] | melting point | IC90 [2] | IC90 [3] | IC90 SPN 6305 [1] | Compound
– | 3.56 µg/mL (≈ 6.32 µM) | 1.59 µg/mL (≈ 2.82 µM) | – | – | – | 6.32 µg/mL (≈ 11.2 µM) | COc1nc2ccc(Br)cc2cc1C(c1ccc(SC)cc1)C1(O)CCNC(Cc2ccccc2)C1 (stereo not shown) [Compound 101]
7.5 µg/mL (≈ 12.6 µM) | 3.76 µg/mL (≈ 6.31 µM) | 3.76 µg/mL (≈ 6.31 µM) | 145 °C | – | – | – | COc1nc2ccc(Br)cc2cc1C(c1ccc(S(C)(=O)=O)cc1)C1(O)CCNC(Cc2ccccc2)C1 (stereo not shown) [Compound 102]
– | 1.66 µg/mL (≈ 2.82 µM) | 0.93 µg/mL (≈ 1.58 µM) | 124 °C | – | – | 6.60 µg/mL (≈ 11.2 µM) | COc1nc2ccc(Br)cc2cc1C(c1ccc(Cl)cc1)C1(O)CCNC(Cc2ccc(F)c(F)c2)C1 (stereo not shown) [Compound 112]
– | 2.02 µg/mL (≈ 3.44 µM) | 1.01 µg/mL (≈ 1.72 µM) | – | – | – | 4.04 µg/mL (≈ 6.87 µM) | COc1nc2ccc(Br)cc2cc1C(c1ccc(Cl)cc1)C1(O)CCNC(Cc2ccc(F)c(F)c2)C1 (stereo not shown) [Compound 113]
4.38 µg/mL (≈ 7.94 µM) | – | 0.98 µg/mL (≈ 1.78 µM) | – | 1.75 µg/mL (≈ 3.17 µM) | – | – | COc1nc2ccc(Br)cc2cc1C(c1ccc(Cl)cc1)C1(O)CCNCC1Cc1ccccc1 (stereo not shown) [Compound 114]
4.16 µg/mL (≈ 7.67 µM) | – | – | – | 3.3 µg/mL (≈ 6.08 µM) | 2.08 µg/mL (≈ 3.83 µM) | – | COc1nc2ccc(Br)cc2cc1C(c1ccc(C#N)cc1)C1(O)CCNC(Cc2ccccc2)C1 (stereo not shown) [Compound 115]
– | 3.42 µg/mL (≈ 6.3 µM) | 1.72 µg/mL (≈ 3.17 µM) | 153 °C | – | – | 6.83 µg/mL (≈ 12.6 µM) | COc1nc2ccc(Br)cc2cc1C(c1ccc(C#N)cc1)C1(O)CCNC(Cc2ccccc2)C1 (stereo not shown) [Compound 116]
5.52 µg/mL (≈ 10 µM) | – | – | – | 3.48 µg/mL (≈ 6.31 µM) | 2.77 µg/mL (≈ 5.02 µM) | – | COc1nc2ccc(Br)cc2cc1C(c1ccc(Cl)cc1)C1(O)CCNCC1Cc1ccccc1 (stereo not shown) [Compound 117]
3.62 µg/mL (≈ 6.73 µM) | – | – | – | 3.62 µg/mL (≈ 6.73 µM) | 3.62 µg/mL (≈ 6.73 µM) | – | O=c1[nH]c2ccc(Br)cc2cc1[C@@H](c1ccc(Cl)cc1)[C@]1(O)CCNC(Cc2ccccc2)C1 (stereo partly shown) [Compound 121]
– | 2.88 µg/mL (≈ 5.35 µM) | 3.62 µg/mL (≈ 6.73 µM) | – | – | – | 3.62 µg/mL (≈ 6.73 µM) | O=c1[nH]c2ccc(Br)cc2cc1[C@@H](c1ccc(Cl)cc1)[C@]1(O)CCNC(Cc2ccccc2)C1 (stereo partly shown) [Compound 122]
